Source: US10864190B2 (CeMM—Forschungszentrum für Molekulare Medizin GmbH, priority 2015, dated 2020)

Key:
LNCaP cells = assay: Dose-response matrix, viability of LNCaP cells; assay type: cell-based; details: 3 days, antiandrogen in combination with phenprocoumon
Experimental: LNCaP (ATCC, Manassas, Va., USA, CRL-1740) and PC-3 (ATCC, CRL-1435) cells were grown in RPMI-1640 supplemented with 10% fetal bovine serum (Thermo Fisher Scientific) and 1% penicillin/streptomycin (Sigma-Aldrich). For steroid-deprived experiments, LNCaP cells were cultured in RPMI-1640 supplemented with 10% charcoal stripped fetal bovine serum (Thermo Fisher Scientific) and 1% penicillin/streptomycin (Sigma-Aldrich).
CLOUD drugs and combinations thereof were transferred on 384-well plates using an acoustic liquid handler (Echo, Labcyte, Sunnyvale, Calif., USA) and 5,000 cells/well were dispensed on top of the drugs using a dispenser (Thermo Fisher Scientific) for a total of 50 μl/well. Viability was measured after 72 hours using CellTiter-Glo (Promega, Fitchburg, Wis., USA) in a multilabel plate reader (EnVision, PekinElmer, Waltham, Mass., USA). Signal was then normalized to negative (DMSO) and positive (10 μM dasatinib) controls and set between 0 and 100. […] Drug combinations were analyzed according to the Bliss independence model (Bliss C I, Ann Appl Biol, 1939, 26:585-615). Briefly, the effect of the combination of drug A and drug B can be predicted to be C=A+B−A*B where A and B are the effects of the single drugs expressed as fractional inhibition between 0 and 1. A deviation of the experimental value from the Bliss prediction was calculated. […]

[1] = test system: AR signaling canonical targets (KLK3, TMPRSS2, KLK2) and AR; assay: RT-qPCR of AR and canonical targets of AR signaling in LNCaP cells; assay type: cell-based; details: 24 hours
Experimental: The RNeasy kit (Qiagen, Venlo, Netherlands) was used to extract RNA. cDNA was produced and reverse transcription quantitative polymerase chain reaction performed using the High Capacity cDNA Reverse Transcription kit and the SYBR Green Master mix from Thermo Fisher Scientific. Reverse transcription quantitative polymerase chain reaction was performed on a LightCycler 480 (Roche, Basel, Switzerland).

androgen receptor (AR) [2] = target: T1, androgen receptor (AR) (Homo sapiens, UniProt P10275, T878A); assay: Cellular thermal shift assay (CETSA); assay type: binding
T1 construct: AR immunoprecipitated from LNCaP cells treated with either DMSO or phenprocoumon; host or cells: LNCaP
T1 sequence (P10275 whole entry T878A): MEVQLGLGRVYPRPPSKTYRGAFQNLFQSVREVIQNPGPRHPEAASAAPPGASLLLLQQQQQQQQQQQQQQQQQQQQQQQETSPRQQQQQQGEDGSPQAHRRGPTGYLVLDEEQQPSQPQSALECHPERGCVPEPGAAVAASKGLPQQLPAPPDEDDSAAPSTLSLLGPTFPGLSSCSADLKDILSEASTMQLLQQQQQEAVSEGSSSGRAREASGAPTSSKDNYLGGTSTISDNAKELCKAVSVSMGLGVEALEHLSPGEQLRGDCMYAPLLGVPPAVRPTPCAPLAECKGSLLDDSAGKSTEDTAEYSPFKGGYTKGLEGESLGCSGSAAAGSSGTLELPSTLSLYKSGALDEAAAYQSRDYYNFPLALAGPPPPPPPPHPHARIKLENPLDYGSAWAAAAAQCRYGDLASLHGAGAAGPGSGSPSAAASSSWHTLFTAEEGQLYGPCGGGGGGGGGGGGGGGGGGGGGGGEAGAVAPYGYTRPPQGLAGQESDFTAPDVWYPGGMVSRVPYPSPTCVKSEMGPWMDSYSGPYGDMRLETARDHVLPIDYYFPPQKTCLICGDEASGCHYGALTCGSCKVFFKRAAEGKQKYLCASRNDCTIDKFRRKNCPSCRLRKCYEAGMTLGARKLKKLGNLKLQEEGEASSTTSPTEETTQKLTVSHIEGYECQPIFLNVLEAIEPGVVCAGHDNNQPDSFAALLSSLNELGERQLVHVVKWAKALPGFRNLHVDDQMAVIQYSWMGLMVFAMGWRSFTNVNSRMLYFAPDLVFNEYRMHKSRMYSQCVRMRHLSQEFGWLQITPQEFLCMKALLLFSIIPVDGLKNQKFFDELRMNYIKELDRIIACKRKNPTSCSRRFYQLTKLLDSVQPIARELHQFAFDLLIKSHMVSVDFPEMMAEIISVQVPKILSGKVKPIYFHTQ
Experimental: LNCaP cells were treated with DMSO or 35 μM PPC for 2 days and then harvested maintaining a constant concentration of PPC in all subsequent handling buffers. Otherwise, lysates were directly treated with the drug as already described (Martinez Molina D et al., Science, 2013, 341:84-7).

androgen receptor (AR) [3] = assay: 2D difference gel electrophoresis (DIGE) of immunoprecipitated AR; assay type: cell-based; details: AR immunoprecipitated from LNCaP cells, versus DMSO
Experimental: (§1) Cells were lysed in IP buffer (50 mM Tris pH 8, 150 mM NaCl, 1% Igepal) supplemented with a cocktail of protease inhibitors (Roche). Immunoprecipitations were performed at 4° C. and using Dynabeads Protein G (Thermo Fisher Scientific). Lysates were precleared with beads for 30 minutes, incubated with antibodies overnight (1 μg antibody was used for 50 μg protein) and immunoprecipitated for 2 hours. After washing, immunoprecipitated proteins were eluted by either boiling in Laemmli buffer or using 50 mM glycine pH 2.8.
IP lysates eluted with glycine buffer were used for 2D difference gel electrophoresis (DIGE). […] Rehydration and isoelectric focusing on IPG strips (ReadyStrip IPG Strips, 11 cm, pH 3-10, non-linear (BioRad)) was followed by SDS-PAGE on gradient gels (Criterion, Any kD, BioRad) and detection with a Typhoon fluorescence scanner at the recommended excitation and emission wavelengths for G-Dye200 and G. Images were analyzed using Delta2D 4.3 software (Decodon, Greifswald, Germany).
The inventors then assessed whether phenprocoumon treatment could otherwise modify AR and analyzed the migration pattern of the protein by means of 2D gel electrophoresis (see FIG. 13H).

γ-carboxylated AR = assay: γ-carboxylation in LNCaP cells (western blotting, immunoprecipitation with anti-γ-carboxyglutamyl antibody); assay type: cell-based; details: LNCaP lysates, increasing amounts of phenprocoumon
Experimental: Cells were lysed in RIPA buffer supplemented with a cocktail of protease inhibitors (Roche). Lysates were resolved by sodium dodecyl sulfate-polyacrylamide gel electrophoresis. AR (#5153) and GAPDH (#5174) antibodies were purchased from Cell Signaling Technology (Danvers, Mass., USA). αTUB antibody (ab7291) was purchased from Abcam (Cambridge, UK). Anti-γ-carboxyglutamyl antibody (REF 3570) was purchased from Sekisui Diagnostics (Lexington, Mass., USA).
as §1

| Compound | synergy in combination with phenprocoumon (LNCaP cells) | effect on induction of AR signaling (KLK3, KLK2) by R1881 ([1]; 10 nM R1881 ± 35 μM PPC) | expression of AR signaling canonical targets KLK3, TMPRSS2 and KLK2 ([1]; steroid-deprived medium, 15 μM flutamide, 35 μM PPC) | thermal stability of AR (androgen receptor (AR) [2]; LNCaP cell lysates treated with 100 μM PPC for 30 min, no pretreatment) | thermal stability of AR (androgen receptor (AR) [2]; LNCaP cells treated with 35 μM PPC for 2 days) | isoelectric point of AR (migration pattern) (androgen receptor (AR) [3]) | amount of AR immunoprecipitated with γ-carboxylation-specific antibody (γ-carboxylated AR) |
| --- | --- | --- | --- | --- | --- | --- | --- |
| CNC(=O)c1ccc(N2C(=S)N(c3ccc(C#N)c(C(F)(F)F)c3)C(=O)C2(C)C)cc1F [enzalutamide] | synergistic interaction with phenprocoumon, albeit to a lower extent compared to flutamide |  |  |  |  |  |  |
| CC1(C)NC(=O)N(c2ccc([N+](=O)[O-])c(C(F)(F)F)c2)C1=O [nilutamide] | synergistic interaction with phenprocoumon, albeit to a lower extent compared to flutamide |  |  |  |  |  |  |
| CCC(c1ccccc1)c1c(O)c2ccccc2oc1=O (centres unmarked) [phenprocoumon] |  | did not interfere with the induction of AR signaling | did not affect the expression of these genes | did not stabilize AR | affects the thermal stability of AR | migrated at a higher isoelectric point | reduced the amount of immunopreciptated protein in a dose-dependent manner |
